Measured values published in US20250282816A1, “THIOSTREPTON COMPOSITIONS AND PREPARATION THEREOF” (RS Oncology, LLC, priority 2021, published 2025).

What was measured:
[1] = tested on: ovarian cancer cell line SKOV3; experiment: cell viability assay, crystal violet cell staining; type: cell-based; conditions: 48 hours treatment
Method: Commercial thiostrepton (TS) starting material (TS Non-GMP) and ultrapure TS (TS GMP) were diluted to 10 mM in sterile DMSO. Lots of TS were evaluated in a cell viability assay using the ovarian cancer cell line SKOV3 purchased from ATCC. Two replicate plates containing technical duplicates were set up for screening. Cells were plated at a density of 2,500 cells/well in 96-well plates and allowed to adhere for 24 hours prior to treatment. A starting concentration of 20 μM for each TS solution was serial diluted 1:1 covering a concentration range of 20 μM to 20 nM. Cells were incubated with treatments for 48 hours prior to fixation with 3% formaldehyde and crystal violet cell staining to determine residual cells remaining (100%=no cell death, 0%=complete cell death). FIG. 4. EC50 values (the concentration required to kill 50% of cells) were determined using a variable slope least square fit non-linear regression. FIG. 5.

[2] = Antibiotics-Microbial assay, USP <81>; type: cell-based; conditions: final product of the 2 kg scale cGMP process (GMP DS Lot 1); specification ≥900 IU/mg
Description: Materials and Methods. […] Identification by IR spectrum, USP <197K> • 2. Antibiotics-Microbial assay, USP <81>

C=C(NC(=O)C(=C)NC(=O)c1csc(C2=N[C@@H]3c4csc(n4)[C@H]4NC(=O)c5csc(n5)[C@H]([C@](C)(O)[C@@H](C)O)NC(=O)[C@H]5CSC(=N5)/C(=C/C)NC(=O)[C@H]([C@@H](C)O)NC(=O)c5csc(n5)[C@]3(CC2)NC(=O)[C@H](C)NC(=O)C(=C)NC(=O)[C@H](C)NC(=O)[C@H]([C@@H](C)CC)N[C@@H]2C=Cc3c([C@H](C)O)cc(nc3[C@H]2O)C(=O)O[C@@H]4C)n1)C(N)=O [ultrapure TS, thiostrepton]
biological activity as measured by % cell death of cancer cells, compared with commercial TS ([1]; 20 μM to 20 nM, N=4 replicates (FIG. 4)): better biological activity
biological activity as measured by EC50 (the concentration required to kill 50% of cells), compared with commercial TS ([1]; variable slope non-linear regression, N=4 replicates, p<0.0001 (FIG. 5)): better biological activity
Antibiotics-Microbial assay [2]: 988 IU/mg
